Source: article PMC6365646, “Oxidative Pathways of Deoxyribose and Deoxyribonate Catabolism” (mSystems, 2019)

Biological target: T1, deoxyribose dehydrogenase (iorAB-like dehydrogenase) (Pseudomonas simiae, UniProt A0A1N7UDX6)
T1 construct: gene PS417_10885; each subunit His-tagged (pET32a) in E. coli BL21(DE3), bands at 80 kDa (10885) and 17 kDa (10890); not purified, two clarified lysates mixed; native cytochrome c PS417_10880 not included; with Isoquinoline 1-oxidoreductase subunit alpha-like (deoxyribose dehydrogenase small subunit)
T1 sequence (A0A1N7UDX6 2-739): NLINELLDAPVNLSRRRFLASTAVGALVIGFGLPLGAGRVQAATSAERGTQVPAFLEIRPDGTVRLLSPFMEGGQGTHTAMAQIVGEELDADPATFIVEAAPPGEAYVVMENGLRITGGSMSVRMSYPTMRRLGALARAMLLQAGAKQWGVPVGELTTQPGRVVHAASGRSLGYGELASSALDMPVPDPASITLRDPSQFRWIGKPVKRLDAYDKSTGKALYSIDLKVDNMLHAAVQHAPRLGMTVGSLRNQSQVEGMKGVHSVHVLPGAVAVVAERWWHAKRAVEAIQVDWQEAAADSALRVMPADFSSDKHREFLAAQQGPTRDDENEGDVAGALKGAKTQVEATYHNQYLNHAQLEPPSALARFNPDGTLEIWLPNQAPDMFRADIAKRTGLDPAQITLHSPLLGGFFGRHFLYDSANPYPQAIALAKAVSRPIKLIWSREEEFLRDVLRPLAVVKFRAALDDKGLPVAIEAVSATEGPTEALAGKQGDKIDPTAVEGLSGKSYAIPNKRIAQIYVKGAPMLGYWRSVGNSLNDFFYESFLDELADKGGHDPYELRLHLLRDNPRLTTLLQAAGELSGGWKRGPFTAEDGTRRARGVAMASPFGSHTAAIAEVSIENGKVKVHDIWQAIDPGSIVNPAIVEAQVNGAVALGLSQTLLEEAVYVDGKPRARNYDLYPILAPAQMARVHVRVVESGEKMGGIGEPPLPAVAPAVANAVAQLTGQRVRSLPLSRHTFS
T1 sequence (A0A1N7UJP4 1-151 partner): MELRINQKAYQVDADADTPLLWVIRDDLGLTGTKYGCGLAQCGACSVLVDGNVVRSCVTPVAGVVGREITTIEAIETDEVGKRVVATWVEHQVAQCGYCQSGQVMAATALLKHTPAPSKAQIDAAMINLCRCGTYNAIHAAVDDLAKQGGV
Assay: LC-MS/MS detection of deoxyribonate product, mixed E. coli lysates against empty-vector lysate
Format: biochemical
Conditions: 1 mM deoxyribose, 100 uM phenazine methosulfate as electron acceptor, 100 mM NH4HCO3, room temperature, 1 h, with or without lactonase

For `O=C(O)C[C@H](O)[C@H](O)CO` [2-deoxy-D-ribonate], the “LC-MS/MS detection of deoxyribonate product, mixed E. coli lysates against empty” value (may form through spontaneous or lysate hydrolysis of deoxyribono) was “this product had a fragmentation pattern very similar to that of a 2-deoxy-D-ribonate standard”.
In the case of `OC[C@H]1OC(O)C[C@@H]1O` (stereo partly drawn) [2-deoxy-D-ribose], the “LC-MS/MS detection of deoxyribonate product, mixed E. coli lysates against empty” value is reported as “The iorAB-like dehydrogenase converted deoxyribose to a compound with the same mass-to-charge ratio”.
